Measurements taken from US4927832A, “Novel tetrahydropyridines having analgesic activity” (Roussel Uclaf, priority 1987, dated 1990).
Where a name gives a salt, the structure may show the parent alone.

What was measured:
male mice = assay: Analgesic activity (acetic acid stretching and twisting test); type: in vivo; settings: administered orally 30 minutes before intraperitoneal acetic acid
Procedure: This test was based on the observation of Koster et al (Fed. Proc. 1959, 1B, 412) that the intraperitioneal injection of acetic acid causes repeated movements of stretching and twisting in rodents which can be considered as manifestations of a diffuse abdominal pain because they ae attenuated by analgesics. The acetic acid was injected at a […] male mice of average weight of […]. The product under study was administered orally 30 minutes before the injection of the acetic acid to groups of 10 animals, each trial including a control group which receives the vehicle. Five minutes after the injection of the irritant, the stretchings and twistings were counted for each animal for a period of 15 minutes. The analgesic effect of each dose of product studied was expressed as a percentage of protection in relation to the average number of movements observed in the controls receiving acetic acid alone. The DA50 or dose necessary to reduce the number of stretchings by 50% was calculated according to the method of least squares. The DA50 values obtained with the products of Example 1 and 3 were respectively 2.5 and 5 mg/kg.

K opiated receptor = target: T1, K opiated receptor (Cavia porcellus, UniProt P41144); assay: Liaison to the K opiated receptor in vitro (displacement of 3H ethylketocyclazocine); type: binding, guinea pigs; settings: 50% inhibiting concentration (IC50), membranes from guinea pig brains, 3H ethylketocyclazocine 1 nM, 25° C. for 40 minutes
T1 construct: prepared from the brains of guinea pigs were used; from tissue; host or cells: guinea pig brain membranes
Procedure: (1) Liaison to the K opiated receptor in vitro:
Membrane residues preserved at -30° C. (possibly up to about 30 days) and prepared from the brains of guinea pigs were used.' The residues were suspended in Tris pH 7.7 buffer and fractions of 2 ml were distributed in hemolysis tubes, 9^3 H ethylketocyclazocine 1 nM and the product under study were added. The product was first tested at 5×10^-6 M (in triplicate). When the product tested displaced the radioactivity bound specifically to the receptor by more than 50%, it was again tested according to a range of 7 doses to determine the dose which inhibits the radioactivity bound specifically to the receptor by 50%. In this way, the 50% inhibiting concentration was determined.
The non-specific liaison was determined by adding the product known as U-50488 H (Lahti et al. 1982, Life Sci. 31, 2257) at 10^-5 M in triplicate. After incubating at 25° C. for 40 minutes, returning to the water-bath at 0° C. for 5 minutes, filtering under vacuum, and rinsing with Tris pH 7.7 buffer, the radioactivity was counted in the presence of scintillating Trition. […]

[1] = system: Male rats of Sprague Dawley strain; assay: Measurement of diuretic activity; type: in vivo; settings: 5 mg/kg orally, urinary volume over period t0h-t5h
Procedure: (3) Measurement of diuretic activity Male rats of Sprague Dawley strain weighing 180-200 g were deprived of food for 17 hours before the test, while receiving water ad libitum. Groups of 8 animals were set up for each dose tested and the rats received the product under test or its vehicle orally. The urine volume was measured every hour for the 5 hours following the administration of the product. After this period, the urines were collected and the activity of the product was expressed as a percentage of variation calculated on the urinary volume corresponding to the period tOH --[…].

rat = assay: Anti-arrhythmic activity in the rat (aconitine perfusion); type: in vivo; settings: 5 minutes before aconitine perfusion, compared with controls
Procedure: (2) Anti-arrhythmic activity in the rat
Male rats weighing 300-350 g, anesthesized intra-peritoneally with 1.20 g/kg of urethane, were tracheotomised and submitted to artifical respiration (40-50 insufflations of 3 ml/minute). Needles were implanted sub-cutaneously to record the electrocardiogram of the rats on the DII derivation signal and the products under test were administered intravenously. Five minutes after administering the product, the jugular vein of the rats was perfused with 10 μg/mn from 0.2 ml of an aconitine solution and the time of appearance of disturbances of the cardiac rhythm was noted. The results were expressed as percentage of extension of the time of appearance of the cardiac rhythm disturbances as compared with controls and as a function of the dose of the product tested.

T1 sequence (P41144 whole entry): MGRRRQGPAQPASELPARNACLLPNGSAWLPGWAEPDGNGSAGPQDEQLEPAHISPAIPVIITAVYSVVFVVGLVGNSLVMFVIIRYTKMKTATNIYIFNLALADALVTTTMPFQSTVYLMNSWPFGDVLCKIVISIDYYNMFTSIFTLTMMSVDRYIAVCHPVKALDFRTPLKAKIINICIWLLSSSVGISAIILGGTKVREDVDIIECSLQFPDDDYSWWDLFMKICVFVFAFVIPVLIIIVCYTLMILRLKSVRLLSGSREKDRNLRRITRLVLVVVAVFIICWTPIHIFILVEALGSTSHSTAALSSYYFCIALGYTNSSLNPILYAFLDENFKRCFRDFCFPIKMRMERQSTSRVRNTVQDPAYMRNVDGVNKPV

Compound	DA50 or dose necessary to reduce the number of stretchings by 50% (male mice; 30 min) [mg/kg]	IC50 (K opiated receptor) [nM]	Percentage of variation of the urine volume [1]	Percentage of extension of the time of appearance of the cardiac rhythm disturbances (rat; dose 1 mg/kg intravenously)	Percentage of extension of the time of appearance of the cardiac rhythm disturbances (rat; dose 2.5 mg/kg intravenously)	ED50 (male mice; Mus musculus, po, 0.5 h, read-out: DA50 or dose necessary to reduce the number of stretchings by 50%) [mg/kg]
O=C(Cc1ccc(Cl)c(Cl)c1)N1CCCC2CCC(N3CCCC3)C21 (stereo not drawn) [Example 3, [4aRS (4aα, 7aβ)] (35) 1-[(3.4-dichlorophenyl)acetyl]octahydro-7-(1-pyrrolidinyl)-1H-1-pyrindine hydrochloride (isomer trans I).]	5	9	+57%	–	–	–
O=C(Cc1ccc(Cl)c(Cl)c1)N1CCCC2CCC(N3CCCC3)C21 (mixture of isomers) [Example 1, [4aRS (4a-α, 7a-α)](±)1-[(3,4-dichlorophenyl)-acetyl]-octahydro-7-(1-pyrrolidinyl)-1H-1-pyrindine hydrochloride (isomer cis I)]	–	4	+85%	+26%	+35%	2.5
O=C(Cc1ccc(Cl)c(Cl)c1)N1CCC[C@@H]2CCCC[C@H](N3CCCC3)[C@@H]21 (relative stereo) [Example 4, [4a-α, 9-β, 9a-α] (±) decahydro-1-([3,4-dichlorophenyl)-acetyl]-9-(1-pyrrolidinyl)-1H-cyclohepta[b]pyridine hydrochloride]	–	–	–	+37%	+65%	–
